Structures can show the parent of a compound that is named as a salt.
System: Aβ42 production in H4 cells stably transfected with APP751 containing the Swedish mutation (H4 APP751 SWE clone 8.20)
Experiment: Cellular assay for inhibition of Aβ1-42 production (H4 APP751 SWE clone 8.20)
Type: cell-based
Settings: H4 APP751 SWE clone 8.20 cells, 19 h incubation; Table 5A, 6-alkyl and 6-substituted phenyl thiazine examples
Protocol: Cellular Assays for Inhibition of Aβ1-40 and Aβ1-42 Production
H4 cells stably transfected with APP751 containing the Swedish mutation (H4 APP751 SWE clone 8.20, developed at BMS) were maintained in log phase through twice weekly passage at a 1:20 split. […] Following incubation for 19 h in 5% CO2 at 37° C., plates were briefly centrifuged (1000 rpm, 5 min). A 10 μl aliquot from each well was transferred to a second assay plate (Costar 3709) for Aβ40 measurements. Antibody cocktails were freshly prepared by dilution into 40 mM Tris-HCl (pH 7.4) with 0.2% BSA and added to assay plates. For Aβ42 measurements, antibodies specific for the Aβ42 neoepitope (565, developed at BMS; conjugated to the Wallac reagent (Perkin Elmer)) and the N-terminal sequence of Aβ peptide (26D6, developed at SIBIA; conjugated to APC (Perkin Elmer)) were mixed and 20 μl of the mixture was added to each well of the incubated cell plate yielding a final concentration of 0.8 ng/well 565 and 75 ng/well 26D6. For the Aβ40 measurements, antibodies specific for the Aβ40 neoepitope (TSD, developed at BMS; conjugated to the Wallac reagent (Perkin Elmer)) and 26D6 as described above were mixed and 20 μl of the mixture was added to the 10 μl aliquots which had been removed previously from the cell plate yielding a final concentration of 1.6 ng/well TSD and 17.5 ng/well 26D6. Assay plates containing antibodies were sealed with aluminum foil and incubated overnight at 4° C. Signal was determined using a Viewlux counter (Perkin Elmer) and IC50 values determined using curve fitting in CurveMaster (Excel Fit based).

| SMILES | IC50 |
| --- | --- |
| COc1ccc([C@@H]2C[C@@H](c3cc(-c4cncnc4)c(F)cc3F)N=C(N)S2)cc1OC (racemic) [Example 1, (±)-4-(2,4-difluoro-5-(pyrimidin-5-yl)phenyl)-6-(3,4-dimethoxyphenyl)-5,6-dihydro-4H-1,3-thiazin-2-amine] | 1100 nM |
| CC#Cc1cncc(-c2cc([C@@H]3C[C@@H](c4ccc(OC)c(OC)c4)SC(N)=N3)c(F)cc2F)c1 (racemic) [Example 32, (±)-4-(2,4-difluoro-5-(5-(prop-1-ynyl)pyridin-3-yl)phenyl)-6-(3,4-dimethoxyphenyl)-5,6-dihydro-4H-1,3-thiazin-2-amine] | 1000 nM |
| COc1ccccc1[C@@H]1C[C@@H](c2cccc(-c3cncnc3)c2)N=C(N)S1 (racemic) [Example 11, (±)-6-(2-methoxyphenyl)-4-(3-(pyrimidin-5-yl)phenyl)-5,6-dihydro-4H-1,3-thiazin-2-amine•TFA] | 2400 nM |
| COc1ccc([C@@H]2C[C@@H](c3ccc(F)c(-c4cncnc4)c3)N=C(N)S2)cc1OC (racemic) [Example 7, (±)-6-(3,4-dimethoxyphenyl)-4-(4-fluoro-3-(pyrimidin-5-yl)phenyl)-5,6-dihydro-4H-1,3-thiazin-2-amine] | 1700 nM |
| NC1=N[C@H](c2cccc(-c3cncnc3)c2)C[C@@H](c2ccccc2)S1 (racemic) [Example 2, (±)-6-phenyl-4-(3-(pyrimidin-5-yl)phenyl)-5,6-dihydro-4H-1,3-thiazin-2-amine] | 4100 nM |
| COc1ccc([C@@H]2C[C@@H](c3cc(-c4cncnc4)ccc3F)N=C(N)S2)cc1OC (single isomer, unassigned) [Example 8A] | 460 nM |
| NC1=N[C@H](c2cccc(-c3cncnc3)c2)C[C@@H](Cc2ccccc2)S1 (racemic) [Example 4, (±)-6-benzyl-4-(3-(pyrimidin-5-yl)phenyl)-5,6-dihydro-4H-1,3-thiazin-2-amine] | 7400 nM |
| COc1ccc([C@@H]2C[C@@H](c3cccc(-c4cncnc4)c3)N=C(N)S2)cc1OC (single isomer, unassigned) [Example 3A] | 1100 nM |
| NC1=N[C@H](c2cccc(-c3cncnc3)c2)C[C@@H](c2ccc(OC(F)(F)F)cc2)S1 (racemic) [Example 9, (±)-4-(3-(pyrimidin-5-yl)phenyl)-6-(4-(trifluoromethoxy)phenyl)-5,6-dihydro-4H-1,3-thiazin-2-amine] | 8900 nM |
| COc1ccc([C@@H]2C[C@@H](c3cc(-c4cncnc4)cs3)N=C(N)S2)cc1OC (racemic) [Example 30, (±)-6-(3,4-dimethoxyphenyl)-4-(4-(pyrimidin-5-yl)thiophen-2-yl)-5,6-dihydro-4H-1,3-thiazin-2-amine] | 8000 nM |
| COc1ccc([C@@H]2C[C@@H](c3cccc(-c4cncnc4)c3)N=C(N)S2)cc1 (racemic) [Example 13, (±)-6-(4-methoxyphenyl)-4-(3-(pyrimidin-5-yl)phenyl)-5,6-dihydro-4H-1,3-thiazin-2-amine] | 3700 nM |
| N#Cc1ccc([C@@H]2C[C@@H](c3cccc(-c4cncnc4)c3)N=C(N)S2)cc1 (racemic) [Example 12, 4-((±)-2-amino-4-(3-(pyrimidin-5-yl)phenyl)-5,6-dihydro-4H-1,3-thiazin-6-yl)benzonitrile] | 1800 nM |

Same assay, conditions: H4 APP751 SWE clone 8.20 cells, 19 h incubation; Table 5B, 6-heterocyclic thiazine examples

| SMILES | IC50 |
| --- | --- |
| CC#Cc1cncc(-c2cc(Cl)c([C@]3(C)C[C@@H](c4c(C)noc4C)SC(N)=N3)s2)c1 [Example 44, (4S,6S)-4-(3-chloro-5-(5-(prop-1-ynyl)pyridin-3-yl)thiophen-2-yl)-6-(3,5-dimethylisoxazol-4-yl)-4-methyl-5,6-dihydro-4H-1,3-thiazin-2-amine] | 30 nM |
| Cc1c([C@@H]2C[C@@H](c3cccc(-c4cncnc4)c3)N=C(N)S2)cnn1C (racemic) [Example 25, (±)-6-(1,5-dimethyl-1H-pyrazol-4-yl)-4-(3-(pyrimidin-5-yl)phenyl)-5,6-dihydro-4H-1,3-thiazin-2-amine•TFA] | 3400 nM |
| Cn1cc([C@@H]2C[C@@H](c3cccc(-c4cncnc4)c3)N=C(N)S2)cn1 (racemic) [Example 27, (±)-6-(1-methyl-1H-pyrazol-4-yl)-4-(3-(pyrimidin-5-yl)phenyl)-5,6-dihydro-4H-1,3-thiazin-2-amine•TFA] | 2600 nM |
| Cc1noc(C)c1[C@@H]1C[C@@](C)(c2cc(-c3cncc(O)c3)c(F)cc2F)N=C(N)S1 [Example 53, 5-(5-((4S,6S)-2-amino-6-(3,5-dimethylisoxazol-4-yl)-4-methyl-5,6-dihydro-4H-1,3-thiazin-4-yl)-2,4-difluorophenyl)pyridin-3-ol] | 300 nM |
| Cc1oncc1[C@]1(C)C[C@@H](c2cc(-c3cncnc3)c(F)cc2F)N=C(N)S1 (racemic) [Example 33, (±)-4-(2,4-difluoro-5-(pyrimidin-5-yl)phenyl)-6-methyl-6-(5-methylisoxazol-4-yl)-5,6-dihydro-4H-1,3-thiazin-2-amine] | 180 nM |
| Cc1noc(C)c1[C@@H]1C[C@@H](c2cc(-c3cccc(C#N)c3)cs2)N=C(N)S1 (racemic) [Example 35, 3-(5-((±)-2-amino-6-(3,5-dimethylisoxazol-4-yl)-5,6-dihydro-4H-1,3-thiazin-4-yl)thiophen-3-yl)benzonitrile] | 300 nM |
| Cc1n[nH]c(C)c1[C@@H]1C[C@@H](c2cccc(-c3cncnc3)c2)N=C(N)S1 (racemic) [Example 18, (±)-6-(3,5-dimethyl-1H-pyrazol-4-yl)-4-(3-(pyrimidin-5-yl)phenyl)-5,6-dihydro-4H-1,3-thiazin-2-amine•TFA] | 7100 nM |
| Cc1nc(C)c([C@@H]2C[C@@](C)(c3cc(-c4cncnc4)c(F)cc3F)N=C(N)S2)s1 [Example 43, (4S,6S)-4-(2,4-difluoro-5-(pyrimidin-5-yl)phenyl)-6-(2,4-dimethylthiazol-5-yl)-4-methyl-5,6-dihydro-4H-1,3-thiazin-2-amine] | 210 nM |
| Cc1noc(C)c1[C@@H]1C[C@@H](c2cc(NC(=O)c3ccc(Cl)cn3)ccc2F)N=C(N)S1 (single isomer, unassigned) [Example 38A] | 5 nM |
| Cc1ncsc1[C@@H]1C[C@@H](c2cccc(-c3cncnc3)c2)N=C(N)S1 (racemic) [Example 24, (±)-6-(4-methylthiazol-5-yl)-4-(3-(pyrimidin-5-yl)phenyl)-5,6-dihydro-4H-1,3-thiazin-2-amine•TFA] | 1000 nM |
| Cc1noc(C)c1[C@@H]1C[C@@H](c2cc(-c3cncnc3)c(F)cc2F)N=C(N)S1 (single isomer, unassigned) [Example 29A] | 60 nM |
| CC(=O)c1cc([C@]2(C)C[C@@H](c3c(C)noc3C)SC(N)=N2)c(F)cc1F [Example 47, 1-(5-((4S,6S)-2-amino-6-(3,5-dimethylisoxazol-4-yl)-4-methyl-5,6-dihydro-4H-1,3-thiazin-4-yl)-2,4-difluorophenyl)ethanone] | 220 nM |
| CC[C@@]1(c2ccc(F)cc2F)C[C@@H](c2c(C)noc2C)SC(N)=N1 [Example 51, (4S,6S)-4-(2,4-difluorophenyl)-6-(3,5-dimethylisoxazol-4-yl)-4-ethyl-5,6-dihydro-4H-1,3-thiazin-2-amine] | 1300 nM |
| Cc1noc(C)c1[C@@H]1C[C@@](C)(c2cc(-c3cncnc3)c(F)cc2F)N=C(N)S1 [Example 39, (4S,6S)-4-(2,4-difluoro-5-(pyrimidin-5-yl)phenyl)-6-(3,5-dimethylisoxazol-4-yl)-4-methyl-5,6-dihydro-4H-1,3-thiazin-2-amine] | 8 nM |
| Cc1noc(C)c1[C@@H]1C[C@@H](c2cccc(-c3cncnc3)c2)N=C(N)S1 (racemic) [Example 19, (±)-6-(3,5-dimethylisoxazol-4-yl)-4-(3-(pyrimidin-5-yl)phenyl)-5,6-dihydro-4H-1,3-thiazin-2-amine•TFA] | 230 nM |
| Cc1ncc(-c2cc([C@]3(C)C[C@@H](c4c(C)noc4C)SC(N)=N3)c(F)cc2F)cn1 [Example 40, (4S,6S)-4-(2,4-difluoro-5-(2-methylpyrimidin-5-yl)phenyl)-6-(3,5-dimethylisoxazol-4-yl)-4-methyl-5,6-dihydro-4H-1,3-thiazin-2-amine] | 186 nM |
| Cc1noc(CC(C)(C)O)c1[C@@H]1C[C@@](C)(c2ccc(F)cc2F)N=C(N)S1 [Example 48, 1-(4-((4S,6S)-2-amino-4-(2,4-difluorophenyl)-4-methyl-5,6-dihydro-4H-1,3-thiazin-6-yl)-3-methylisoxazol-5-yl)-2-methylpropan-2-ol] | 110 nM |
| Cc1nc(C)c([C@@H]2C[C@@](C)(c3cc(-c4cncnc4)c(F)cc3F)N=C(N)S2)o1 [Example 42, (4S,6S)-4-(2,4-difluoro-5-(pyrimidin-5-yl)phenyl)-6-(2,4-dimethyloxazol-5-yl)-4-methyl-5,6-dihydro-4H-1,3-thiazin-2-amine] | 108 nM |
| COc1ncc(-c2cc([C@]3(C)C[C@@H](c4c(C)noc4C)SC(N)=N3)c(F)cc2F)cc1Cl [Example 57, (4S,6S)-4-(5-(5-chloro-6-methoxypyridin-3-yl)-2,4-difluorophenyl)-6-(3,5-dimethylisoxazol-4-yl)-4-methyl-5,6-dihydro-4H-1,3-thiazin-2-amine] | 380 nM |

From patent publication US9475784B2, “4,6-diarylaminothiazines as BACE1 inhibitors and their use for the reduction of beta-amyloid production” (BRISTOL-MYERS SQUIBB COMPANY, priority 2012, dated 2016)
